Measurements reported in US20100168084A1, “Therapeutic compounds and related methods of use” (priority 2008, published 2010).
Read-outs that look alike come from different tables or passages of the source.

Molecular target: T1, sirtuin protein (Homo sapiens, UniProt Q96EB6)
T1 sequence (Q96EB6 2-747 limits assumed): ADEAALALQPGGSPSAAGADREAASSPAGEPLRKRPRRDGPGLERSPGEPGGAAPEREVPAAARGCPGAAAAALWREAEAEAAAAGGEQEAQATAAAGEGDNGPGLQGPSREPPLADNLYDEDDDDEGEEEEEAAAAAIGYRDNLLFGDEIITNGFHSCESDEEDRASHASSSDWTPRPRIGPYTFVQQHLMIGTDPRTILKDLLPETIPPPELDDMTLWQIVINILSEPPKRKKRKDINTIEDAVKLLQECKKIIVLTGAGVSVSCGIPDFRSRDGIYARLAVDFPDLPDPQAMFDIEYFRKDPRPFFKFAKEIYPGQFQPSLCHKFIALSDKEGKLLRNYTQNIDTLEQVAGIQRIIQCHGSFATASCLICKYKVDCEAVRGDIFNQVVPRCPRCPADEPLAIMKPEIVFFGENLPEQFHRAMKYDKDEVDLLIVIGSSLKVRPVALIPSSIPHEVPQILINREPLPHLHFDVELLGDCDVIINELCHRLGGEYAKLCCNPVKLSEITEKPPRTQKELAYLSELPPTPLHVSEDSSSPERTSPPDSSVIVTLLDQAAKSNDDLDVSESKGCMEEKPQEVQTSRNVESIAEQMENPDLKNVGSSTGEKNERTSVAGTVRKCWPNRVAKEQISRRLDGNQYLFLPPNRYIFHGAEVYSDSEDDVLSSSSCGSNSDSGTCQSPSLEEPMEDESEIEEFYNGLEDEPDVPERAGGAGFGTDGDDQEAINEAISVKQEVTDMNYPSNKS
Experiment: MS assay (IC50 MS ASSAY / ED50 MS / FOLD ACTIVATION MS)
Assay type: biochemical
Set-up: scale not given here

[1] = MS assay, class symbols A′, A, B, D, NA, legend not given
[2] = Table 4, class symbols A′, A, B, D, NA, legend not given
[3] = class symbols (A′, A, B, D, NA), no legend given

COc1ccc(C(=O)Nc2cccc(-c3nc4ccncc4o3)c2)c(OC)c1 [Compound 429]
A′: ED50 MS ASSAY [1] | ED50 MS ASSAY (Table 4) | ED50 MS ASSAY [2]

COc1ccc(C(=O)Nc2ccccc2-c2cn3cccnc3n2)cc1OC [Compound 438]
A′: ED50 MS ASSAY [1] | ED50 MS ASSAY (Table 4) | ED50 MS ASSAY [2]

COc1cc(C(=O)Nc2ccccc2-c2cn3cccnc3n2)cc(OC)c1OC [Compound 439]
A′: ED50 MS ASSAY [1] | ED50 MS ASSAY (Table 4) | ED50 MS ASSAY [2]

O=C(Nc1ccccc1-c1cn2c(CN3CCNCC3)csc2n1)c1cnc2ccccc2n1 [Compound 441]
A′: ED50 MS ASSAY [1] | ED50 MS ASSAY (Table 4) | ED50 MS ASSAY [2]

Cc1c(C(=O)Nc2ccccc2-c2cn3c(CN4CCNCC4)csc3n2)oc2ccccc12 [Compound 442]
A′: ED50 MS ASSAY [1] | ED50 MS ASSAY (Table 4) | ED50 MS ASSAY [2]

COc1ccc(C(=O)Nc2ccccc2-c2nc3ccncc3o2)c(OC)c1 [Compound 455]
A′: ED50 MS ASSAY [1] | ED50 MS ASSAY (Table 4) | ED50 MS ASSAY [2]

COc1cc(OC)cc(C(=O)Nc2ccccc2-c2nc3ccncc3o2)c1 [Compound 456]
A′: ED50 MS ASSAY [1] | ED50 MS ASSAY (Table 4) | ED50 MS ASSAY [2]

CN(C)c1cccc(C(=O)Nc2ccccc2-c2nc3ccncc3o2)c1 [Compound 458]
A′: ED50 MS ASSAY [1] | ED50 MS ASSAY (Table 4) | ED50 MS ASSAY [2]

CN(C)c1ccc(C(=O)Nc2ccccc2-c2nc3ccncc3o2)cc1 [Compound 459]
A′: ED50 MS ASSAY [1] | ED50 MS ASSAY (Table 4) | ED50 MS ASSAY (Table 4, class symbols) | ED50 MS ASSAY [2] | ED50 MS ASSAY [3]

Cc1cc(C)cc(C(=O)Nc2ccccc2-c2nc3ncccc3o2)c1 [Compound 481]
A′: ED50 MS ASSAY (Table 4, class symbols)

Cc1cc(C)cc(C(=O)Nc2ccccc2-c2nc3ncccc3o2)c1 [Compound 482]
A′: ED50 MS ASSAY | ED50 MS ASSAY (Table 4) | ED50 MS ASSAY [2] | ED50 MS ASSAY [3]

COc1cc(C(=O)Nc2ccccc2-c2nc3ccccc3[nH]2)ccc1CN1CCOCC1 [Compound 503]
A′: ED50 MS ASSAY | ED50 MS ASSAY (Table 4) | ED50 MS ASSAY (Table 4, class symbols) | ED50 MS ASSAY [2] | ED50 MS ASSAY [3]

COc1ccc(C(=O)Nc2ccc(C)cc2-c2nc3ccccc3[nH]2)cc1OC [Compound 507]
A′: ED50 MS ASSAY | ED50 MS ASSAY (Table 4) | ED50 MS ASSAY (Table 4, class symbols) | ED50 MS ASSAY [2] | ED50 MS ASSAY [3]

O=C(Nc1ccccc1-c1nc2ccccc2[nH]1)c1cnc2ccccc2n1 [Compound 508]
A′: ED50 MS ASSAY | ED50 MS ASSAY (Table 4) | ED50 MS ASSAY (Table 4, class symbols) | ED50 MS ASSAY [2] | ED50 MS ASSAY [3]

O=C(Nc1ccccc1-c1cn2c(CN3CCNCC3)csc2n1)c1c[nH]c2ccccc12 [Compound 510]
A′: ED50 MS ASSAY | ED50 MS ASSAY (Table 4) | ED50 MS ASSAY (Table 4, class symbols) | ED50 MS ASSAY [2] | ED50 MS ASSAY [3]

O=C(Nc1ccccc1-c1cn2c(CN3CCNCC3)csc2n1)c1c[nH]nc1-c1ccccc1 [Compound 512]
A′: ED50 MS ASSAY | ED50 MS ASSAY (Table 4) | ED50 MS ASSAY (Table 4, class symbols) | ED50 MS ASSAY [2] | ED50 MS ASSAY [3]

O=C(Nc1ccccc1-c1cn2cc(CN3CCNCC3)sc2n1)c1cnc2ccccc2n1 [Compound 513]
A′: ED50 MS ASSAY | ED50 MS ASSAY (Table 4) | ED50 MS ASSAY (Table 4, class symbols) | ED50 MS ASSAY [2] | ED50 MS ASSAY [3]

COc1ccc(C(=O)Nc2ccc(-c3nc4cnccc4s3)s2)c(OC)c1 [Compound 515]
A′: ED50 MS ASSAY | ED50 MS ASSAY (Table 4) | ED50 MS ASSAY (Table 4, class symbols) | ED50 MS ASSAY [2] | ED50 MS ASSAY [3]

CN(C)c1cccc(C(=O)Nc2ccc(-c3nc4cnccc4s3)s2)c1 [Compound 518]
A′: ED50 MS ASSAY | ED50 MS ASSAY (Table 4) | ED50 MS ASSAY (Table 4, class symbols) | ED50 MS ASSAY [2] | ED50 MS ASSAY [3]

CN(C)c1ccc(C(=O)Nc2ccc(-c3nc4cnccc4s3)s2)cc1 [Compound 519]
A′: ED50 MS ASSAY | ED50 MS ASSAY (Table 4) | ED50 MS ASSAY (Table 4, class symbols) | ED50 MS ASSAY [2] | ED50 MS ASSAY [3]

COc1cc(C(=O)Nc2ccc(-c3nc4cnccc4s3)s2)cc(OC)c1OC [Compound 520]
A′: ED50 MS ASSAY | ED50 MS ASSAY (Table 4) | ED50 MS ASSAY (Table 4, class symbols) | ED50 MS ASSAY [2] | ED50 MS ASSAY [3]

COc1cc(OC)cc(C(=O)Nc2ccccc2-c2nc3cccnc3[nH]2)c1 [Compound 521]
A′: ED50 MS ASSAY | ED50 MS ASSAY (Table 4) | ED50 MS ASSAY (Table 4, class symbols) | ED50 MS ASSAY [2] | ED50 MS ASSAY [3]

CN(C)c1cccc(C(=O)Nc2ccccc2-c2nc3cccnc3[nH]2)c1 [Compound 524]
A′: ED50 MS ASSAY | ED50 MS ASSAY (Table 4) | ED50 MS ASSAY (Table 4, class symbols) | ED50 MS ASSAY [2] | ED50 MS ASSAY [3]

COc1ccc(C(=O)Nc2ccccc2-c2nc3cccnc3[nH]2)cc1OC [Compound 525]
A′: ED50 MS ASSAY | ED50 MS ASSAY (Table 4) | ED50 MS ASSAY (Table 4, class symbols) | ED50 MS ASSAY [2] | ED50 MS ASSAY [3]

O=C(Nc1ccccc1-c1nc2cccnc2[nH]1)c1ccc(N2CCOCC2)cc1 [Compound 526]
A′: ED50 MS ASSAY | ED50 MS ASSAY (Table 4) | ED50 MS ASSAY (Table 4, class symbols) | ED50 MS ASSAY [2] | ED50 MS ASSAY [3]

O=C(Nc1ccccc1-c1nc2cccnc2[nH]1)c1ccc(N2CCCCC2)cc1 [Compound 527]
A′: ED50 MS ASSAY | ED50 MS ASSAY (Table 4) | ED50 MS ASSAY (Table 4, class symbols) | ED50 MS ASSAY [2] | ED50 MS ASSAY [3]

COc1ccc(C(=O)Nc2ccccc2-c2nc3cccnc3[nH]2)cc1C(F)(F)F [Compound 528]
A′: ED50 MS ASSAY | ED50 MS ASSAY (Table 4) | ED50 MS ASSAY (Table 4, class symbols) | ED50 MS ASSAY [2] | ED50 MS ASSAY [3]

O=C(Nc1ccccc1-c1nc2cccnc2[nH]1)c1cccc(OC(F)(F)F)c1 [Compound 529]
A′: ED50 MS ASSAY | ED50 MS ASSAY (Table 4) | ED50 MS ASSAY (Table 4, class symbols) | ED50 MS ASSAY [2] | ED50 MS ASSAY [3]

COc1cccc(C(=O)Nc2ccccc2-c2nc3cccnc3[nH]2)c1C [Compound 530]
A′: ED50 MS ASSAY | ED50 MS ASSAY (Table 4) | ED50 MS ASSAY (Table 4, class symbols) | ED50 MS ASSAY [2] | ED50 MS ASSAY [3]

COc1ccc(C(=O)Nc2ccccc2-c2nc3cccnc3[nH]2)cc1 [Compound 531]
A′: ED50 MS ASSAY | ED50 MS ASSAY (Table 4) | ED50 MS ASSAY (Table 4, class symbols) | ED50 MS ASSAY [2] | ED50 MS ASSAY [3]

COc1cccc(C(=O)Nc2ccccc2-c2nc3cccnc3[nH]2)c1 [Compound 532]
A′: ED50 MS ASSAY | ED50 MS ASSAY (Table 4) | ED50 MS ASSAY (Table 4, class symbols) | ED50 MS ASSAY [2] | ED50 MS ASSAY [3]

O=C(Nc1ccccc1-c1nc2cccnc2[nH]1)c1ccccc1 [Compound 533]
A′: ED50 MS ASSAY | ED50 MS ASSAY (Table 4) | ED50 MS ASSAY (Table 4, class symbols) | ED50 MS ASSAY [2] | ED50 MS ASSAY [3]

CN(C)c1ccc(C(=O)Nc2ccccc2-c2nc3cccnc3[nH]2)cc1 [Compound 534]
A′: ED50 MS ASSAY | ED50 MS ASSAY (Table 4) | ED50 MS ASSAY (Table 4, class symbols) | ED50 MS ASSAY [2] | ED50 MS ASSAY [3]

COc1cc(C(=O)Nc2ccccc2-c2nc3cccnc3[nH]2)ccc1CN1CCOCC1 [Compound 537]
A′: ED50 MS ASSAY | ED50 MS ASSAY (Table 4) | ED50 MS ASSAY (Table 4, class symbols) | ED50 MS ASSAY [2] | ED50 MS ASSAY [3]

COc1cc(C(=O)Nc2ccccc2-c2nc3cccnc3[nH]2)ccc1CN1CCN(C)CC1 [Compound 539]
A′: ED50 MS ASSAY | ED50 MS ASSAY (Table 4) | ED50 MS ASSAY (Table 4, class symbols) | ED50 MS ASSAY [2] | ED50 MS ASSAY [3]

O=C(Nc1ccccc1-c1cn2c(CN3CCNCC3)csc2n1)c1cnccn1 [Compound 543]
A′: ED50 MS ASSAY | ED50 MS ASSAY (Table 4) | ED50 MS ASSAY (Table 4, class symbols) | ED50 MS ASSAY [2] | ED50 MS ASSAY [3]

O=C(Nc1ccccc1-c1cn2c(n1)CCCC2)c1ccc2ccccc2n1 [Compound 547]
A′: ED50 MS ASSAY | ED50 MS ASSAY (Table 4) | ED50 MS ASSAY (Table 4, class symbols) | ED50 MS ASSAY [2] | ED50 MS ASSAY [3]

O=C(Nc1ccccc1-c1cn2c(n1)CCCC2)c1cnc2ccccc2n1 [Compound 548]
A′: ED50 MS ASSAY | ED50 MS ASSAY (Table 4) | ED50 MS ASSAY (Table 4, class symbols) | ED50 MS ASSAY [2] | ED50 MS ASSAY [3]

O=C(Nc1ccccc1-c1nc2ccccc2[nH]1)c1ccc2ccccc2n1 [Compound 556]
A′: ED50 MS ASSAY | ED50 MS ASSAY (Table 4) | ED50 MS ASSAY (Table 4, class symbols) | ED50 MS ASSAY [2] | ED50 MS ASSAY [3]
